Entries after “also recorded” stand apart in the source; their conditions may differ.
Experiments:
[1] = test system: HIV-1 infected adult subjects; assay: Study 202 biomarkers of inflammation; type: in vivo, human
Procedure: As an exploratory analysis, levels of inflammation biomarkers MCP-1, sCD14, high sensitivity C-reactive protein [hs-CRP], interleukin-6 [IL-6], D-dimer, and fibrinogen) were measured. Baseline values and changes from baseline at Week 24 and Week 48 of MCP-1, sCD14, hs-CRP, IL-6, D-dimer, and fibrinogen are summarized in Table 22.
The sCD14 samples were originally analyzed in 2 separate batches: Batch 1 included samples leading up to the Week 24 primary analysis and Batch 2 included Week 32 and Week 48 (end of study) samples. A repeat analysis of archived samples all analyzed in one batch was conducted for consistency in analysis across time points. To control for the effects of covariates, a linear mixed-model repeated-measures analysis was conducted on the changes from baseline in sCD14 (analysis dated September 2013).

CCR2 = CCR2 (Homo sapiens, UniProt P41597); assay: CCR2 antagonism in in vitro, ex vivo and clinical studies; settings: ex vivo, Studies 652-2-201 and 652-2-202
Description: Clinical evidence of CCR2 and CCR5 antagonism was established by measuring changes from baseline in plasma MCP-1 (a ligand of CCR2) concentrations and changes in plasma HIV-RNA (CCR5 co-receptor required for HIV entry), respectively, in these 2 Phase 2 Studies.

HIV-1 infected subjects = assay: Study 202 efficacy and tolerability; type: in vivo, human; settings: CVC 100 mg and 200 mg for up to 48 weeks, 115 subjects
[2] = test system: thioacetamide (TAA)-induced hepatic fibrosis; assay: Rat model of thioacetamide-induced liver fibrosis and cirrhosis; type: in vivo, Sprague-Dawley rats; settings: first 8 weeks
Procedure: Fibrosis was induced in male Sprague-Dawley rats by intraperitoneal administration of TAA 150 mg/kg 3 times/week for 8 weeks. […] Biochemical, gene expression and histologic evaluations of the liver were conducted.

[3] = test system: renal fibrosis induced by unilateral ureter occlusion (UUO); assay: Mouse UUO model of renal fibrosis; type: in vivo, CD-1 mice
Procedure: Test animals were allocated to weight-matched treatment groups on the day prior to the surgical procedure (Day −1). Male CD-1 mice (N=51; age, 7-8 weeks) underwent either sham surgery or total ligation of the right ureter, i.e. UUO, via aseptic laparotomy (FIG. 5). […] Another group received the anti-transforming growth factor TGF-β1 antibody, compound 1D11 (positive control) at 3 mg/kg/day from Days −1 to 4, injected intraperitoneally once daily, and vehicle control from Days 0 to 5. […] On Day 5, animals were anaesthetised, blood and tissues were collected prior to sacrifice.
Study endpoints included: a) body and kidney weights; b) fibrosis in obstructed kidney evaluated via histological quantitative image analysis of picrosirius red staining (ten images/depth/kidney obtained and assessed in a blinded fashion using light microscopy [at 200×] to enable sampling of 60-70% of the renal cortical area) and quantified by a composite Collagen Volume Fraction (CVF [% total area imaged]) score expressed as the average positive stain across three anatomically distinct ([…] apart) tissue sections, or depths, from the obstructed kidney; c) hydroxyproline content of frozen renal cortical tissue biopsies as assessed by biochemical analyses; d) mRNA expression of profibrotic and inflammatory biomarkers (including MCP-1, Collagen 1a1, Collagen 3a1, TGF-β1, Fibronectin-1, α-smooth muscle actin (α-SMA) and connective tissue growth factor-1 (CTGF-1); assessed via Luminex® (Life Technologies™, Carlsbad, Calif., USA) assay with relative expression normalised to HPRT (hypoxanthine phosphoribosyltransferase).
Data are expressed as mean±standard error of mean (SEM). Statistical analyses were performed using GraphPad Prism® (GraphPad Software, Inc., San Diego, Calif., USA). Treatment differences between sham-surgery+vehiclecontrol and UUO+vehicle-control groups, and between UUO+vehicle-control and UUO+compound-1D1 (positive control) groups, were analysed by unpaired t-Test. Treatment differences between UUO+vehicle-control and CVC-dose groups were analysed by one-way ANOVA (analysis of variance) with Dunnett's test (post-hoc).

[4] = Mouse toxicity studies without surgical procedures; type: in vivo; settings: CVC doses up to 2000 mg/kg/day
[5] = CVC 7 and 20 mg/kg/day, compound 1D11, vs UUO+vehicle-control

Sequence of CCR2 (P41597 whole entry): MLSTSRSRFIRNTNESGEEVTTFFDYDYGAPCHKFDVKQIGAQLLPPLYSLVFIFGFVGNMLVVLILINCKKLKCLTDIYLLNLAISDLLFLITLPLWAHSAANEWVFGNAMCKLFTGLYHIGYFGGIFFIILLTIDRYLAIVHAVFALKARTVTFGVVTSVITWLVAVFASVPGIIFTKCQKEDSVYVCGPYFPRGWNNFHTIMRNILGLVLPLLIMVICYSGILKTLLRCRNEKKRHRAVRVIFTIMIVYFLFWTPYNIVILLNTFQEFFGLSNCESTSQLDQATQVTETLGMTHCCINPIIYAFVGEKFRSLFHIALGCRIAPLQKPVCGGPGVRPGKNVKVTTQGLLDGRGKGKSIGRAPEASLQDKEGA

CCCCOCCOc1ccc(-c2ccc3c(c2)/C=C(/C(=O)Nc2ccc([S@@+]([O-])Cc4cncn4CCC)cc2)CCCN3CC(C)C)cc1 [CVC, (S)-8-[4-(2-Butoxyethoxy)phenyl]-1-isobutyl-N-(4-{[(1-propyl-1H-imidazol-5-yl)methyl]sulfinyl}phenyl)-1,2,3,4-tetrahydro-1-benzazocine-5-carboxamide]
D-dimer Changes from baseline at Week 24, Mean ([1]; CVC 100 mg): -32 ng/mL | D-dimer Changes from baseline at Week 24, Median ([1]; CVC 100 mg): -1.0 ng/mL | D-dimer Changes from baseline at Week 48, Mean ([1]; CVC 100 mg): -41 ng/mL | D-dimer Changes from baseline at Week 48, Median ([1]; CVC 100 mg): -1.0 ng/mL | Fibrinogen Changes from baseline at Week 24, Mean ([1]; CVC 100 mg): -3 mg/dL | Fibrinogen Changes from baseline at Week 24, Median ([1]; CVC 100 mg): -14 mg/dL | Fibrinogen Changes from baseline at Week 48, Mean ([1]; CVC 100 mg): 11 mg/dL | Fibrinogen Changes from baseline at Week 48, Median ([1]; CVC 100 mg): 15 mg/dL | IL-6 Changes from baseline at Week 24, Mean ([1]; CVC 100 mg): 0.42 pg/mL | IL-6 Changes from baseline at Week 24, Median ([1]; CVC 100 mg): 0.00 pg/mL | IL-6 Changes from baseline at Week 48, Mean ([1]; CVC 100 mg): 0.29 pg/mL | IL-6 Changes from baseline at Week 48, Median ([1]; CVC 100 mg): 0.00 pg/mL | MCP-1 Changes from baseline at Week 24, Mean ([1]; CVC 100 mg): 493 pg/mL | MCP-1 Changes from baseline at Week 24, Median ([1]; CVC 100 mg): 429 pg/mL | MCP-1 Changes from baseline at Week 48, Mean ([1]; CVC 100 mg): 636 pg/mL | MCP-1 Changes from baseline at Week 48, Median ([1]; CVC 100 mg): 523 pg/mL | hs-CRP Changes from baseline at Week 24, Mean ([1]; CVC 100 mg): -0.16 mg/dL | hs-CRP Changes from baseline at Week 24, Median ([1]; CVC 100 mg): -0.03 mg/dL | hs-CRP Changes from baseline at Week 48, Mean ([1]; CVC 100 mg): -0.08 mg/dL | hs-CRP Changes from baseline at Week 48, Median ([1]; CVC 100 mg): -0.01 mg/dL | plasma MCP-1 over time ([1]; CVC 100 mg and 200 mg, EFV, up to Week 48): dose-response was observed with CVC in increases over time | sCD14 Changes from baseline Week 32, Mean ([1]; CVC 100 mg, original values): 110000 pg/mL | sCD14 Changes from baseline Week 32, Median ([1]; CVC 100 mg, original values): 120000 pg/mL | sCD14 Changes from baseline at Week 12, Mean ([1]; CVC 100 mg, original values): -140000 pg/mL | sCD14 Changes from baseline at Week 12, Median ([1]; CVC 100 mg, original values): -160000 pg/mL | sCD14 Changes from baseline at Week 24, Mean ([1]; CVC 100 mg, original values): -190000 pg/mL | sCD14 Changes from baseline at Week 24, Median ([1]; CVC 100 mg, original values): -180000 pg/mL | sCD14 Changes from baseline at Week 48, Mean ([1]; CVC 100 mg, original values): 100000 pg/mL | sCD14 Changes from baseline at Week 48, Median ([1]; CVC 100 mg, original values): 100000 pg/mL | D-dimer Changes from baseline at Week 24, Mean ([1]; CVC 200 mg): -64 ng/mL | D-dimer Changes from baseline at Week 24, Median ([1]; CVC 200 mg): -50 ng/mL | D-dimer Changes from baseline at Week 48, Mean ([1]; CVC 200 mg): -70 ng/mL | D-dimer Changes from baseline at Week 48, Median ([1]; CVC 200 mg): -50 ng/mL | Fibrinogen Changes from baseline at Week 24, Mean ([1]; CVC 200 mg): -7 mg/dL | Fibrinogen Changes from baseline at Week 24, Median ([1]; CVC 200 mg): -8 mg/dL | Fibrinogen Changes from baseline at Week 48, Mean ([1]; CVC 200 mg): -10 mg/dL | Fibrinogen Changes from baseline at Week 48, Median ([1]; CVC 200 mg): -13 mg/dL | IL-6 Changes from baseline at Week 24, Mean ([1]; CVC 200 mg): 0.81 pg/mL | IL-6 Changes from baseline at Week 24, Median ([1]; CVC 200 mg): 0.00 pg/mL | IL-6 Changes from baseline at Week 48, Mean ([1]; CVC 200 mg): -0.04 pg/mL | IL-6 Changes from baseline at Week 48, Median ([1]; CVC 200 mg): 0.00 pg/mL | MCP-1 Changes from baseline at Week 24, Mean ([1]; CVC 200 mg): 753 pg/mL | MCP-1 Changes from baseline at Week 24, Median ([1]; CVC 200 mg): 695 pg/mL | MCP-1 Changes from baseline at Week 48, Mean ([1]; CVC 200 mg): 900 pg/mL | MCP-1 Changes from baseline at Week 48, Median ([1]; CVC 200 mg): 756 pg/mL | hs-CRP Changes from baseline at Week 24, Mean ([1]; CVC 200 mg): -0.07 mg/dL | hs-CRP Changes from baseline at Week 24, Median ([1]; CVC 200 mg): -0.04 mg/dL | hs-CRP Changes from baseline at Week 48, Mean ([1]; CVC 200 mg): -0.18 mg/dL | hs-CRP Changes from baseline at Week 48, Median ([1]; CVC 200 mg): -0.04 mg/dL | sCD14 Changes from baseline Week 32, Mean ([1]; CVC 200 mg, original values): 20000 pg/mL | sCD14 Changes from baseline Week 32, Median ([1]; CVC 200 mg, original values): -20000 pg/mL | sCD14 Changes from baseline at Week 12, Median ([1]; CVC 200 mg, original values): -210000 pg/mL | sCD14 Changes from baseline at Week 24, Mean ([1]; CVC 200 mg, original values): -230000 pg/mL | sCD14 Changes from baseline at Week 24, Median ([1]; CVC 200 mg, original values): -190000 pg/mL | sCD14 Changes from baseline at Week 48, Mean ([1]; CVC 200 mg, original values): -40000 pg/mL | sCD14 Changes from baseline at Week 48, Median ([1]; CVC 200 mg, original values): -40000 pg/mL | sCD14 over 48 weeks of treatment (linear mixed-model analysis of repeat sCD14 analysis) ([1]; both CVC treatment arms, EFV arm): decrease | antagonism of CCR2 (CCR2): potent and concentration-dependent antagonism | tolerability in HIV-1 infected subjects (HIV-1 infected subjects): generally well tolerated; also recorded: effective and well tolerated | reduction of fibrosis by collagen morphometry ([2]; Group 1a: CVC 30 mg/kg/day concurrently with TAA): 49% | reduction of fibrosis by collagen morphometry ([2]; Group 1b: CVC 100 mg/kg/day concurrently with TAA): 38% | effect on body weight ([3]; CVC 7 mg/kg/day oral, compound 1D11 3 mg/kg/day i.p., Day 5): no effect | decrease in body weight relative to UUO+vehicle-control ([3]; CVC 20 mg/kg/day, Day 5): 5% | tolerability after UUO surgery ([3]; CVC 100 mg/kg/day group (N=9)): terminated early due to moribundity | effect on UUO-induced increases in obstructed kidney hydroxyproline content ([3]; CVC 7 and 20 mg/kg/day): Neither dose of CVC tested affected | effects on obstructed or contralateral kidney weight or kidney weight index ([3]; CVC 7 and 20 mg/kg/day, compound 1D11 3 mg/kg/day, vs UUO+vehicle-control): No significant treatment effects | Collagen 1a1, Collagen 3a1, TGF-β1 and Fibronectin-1 mRNA expression in obstructed kidney [3, 5]: attenuated UUO-induced increases | obstructed kidney cortical MCP-1, α-SMA and CTGF-1 mRNA expression [3, 5]: did not have significant effects | tolerability [4]: well tolerated

From patent US20200000772A1, “CENICRIVIROC COMBINATION THERAPY FOR THE TREATMENT OF FIBROSIS” (Tobira Therapeutics, Inc., priority 2014, published 2020)
